The subject of one data set is Target C. The experiment in a line: HiBiT protein abundance assay, Target C. In kind it is cell-based, human. The note with it: Table 13A, modified K562 cells. The procedure, abridged:
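HiBiT knock-in K562-derived cells seeded at 10000/well and treated with 10-point 3-fold dilutions (top final 10 μM, ≤0.25% DMSO) for 24 h at 37 °C. Lytic HiBiT luminescence normalised to unmodified-cell and DMSO controls; IC50 from 4-parameter fit at 50% abundance.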
For orientation: HiBiT is a short tag that completes a luciferase, so light tracks the accessible tagged protein.

The nature of data set [1]: Transwell assay for membrane efflux and permeability. It counts as in vitro ADME, Canine. The note with it: dog; MDCK-BCRP or MDCKII-MDR1 transwell, test compound 1 μM, 2 hours at 37° C. An excerpt:
Compounds described herein were screened for cell membrane permeability and efflux in a transwell assay using Madin-Darby Canine Kidney (MDCK) cells expressing Breast Cancer Resistance Protein (BCRP) or subclone MDCKII cells expressing Multidrug Resistance Protein 1 (MDR1).
MDCK-BCRP or MDCKII-MDR1 Cells: The Netherlands Cancer Institute, High Glucose Dulbecco's Modified Eagle's Medium (DMEM): Gibco/Thermo Fisher Scientific, Fetal Bovine Serum (FBS): Coming, Hank's Balanced Salt Solution (HBSS) and Trypsin/EDTA: Gibco/Thermo Fisher Scientific, HTS Transwell-96 Well Permeable Supports: Coming Corporation, Millicell Epithelial Volt-Ohm: Millipore, Cellometer® Vision: Nexcelom Bioscience LLC, Infinite 200 PRO microplate reader: Tecan, MTS2/4 orbital shaker: IKA Labortechnik, HEPES/Penicillin/Streptomycin: Solarbio.
MDCK-BCRP or MDCKII-MDR1 cells were seeded to each of the wells of the transwell plate at a density of 1.6×10^6 cells/mL and the plate was incubated for 4-8 days with medium changes every two days. To perform the drug transport assay, cell monolayers were first washed three times with pre-warmed HBSS and then incubated with gentle shaking (150 rpm) for 30 min at 37° C. Stock solutions of test compounds (e.g., exemplary compounds of Formulas (I), (II), and (III)) and control compounds (e.g., metoprolol, prazosin, and/or imatinib) were prepared in DMSO and adjusted to a working solution using HBSS. The final concentration of test compounds was 1 μM with DMSO; 0.5%. The plates were incubated at 37° C. for 2 hours.

SMILES strings stand for the structures. Some results are limits rather than exact numbers.

Usually IC50 stands for the concentration that gives 50% inhibition. A lower IC50 goes with greater potency. The Papp is the rate of passage across a membrane or cell layer, normalised by area and donor concentration. One may read the efflux ratio as a quotient of directional permeabilities that is used to spot active efflux. Regarding `CN(c1ccc(-c2cc(F)c(-c3cn[nH]c3)c3cn[nH]c23)nn1)[C@@H]1C[C@H]2CC(F)(F)[C@@H](C1)N2` (stereo in doubt) [Compound 378, 6,6-difluoro-N-{6-[5-fluoro-4-(1H-pyrazol-4-yl)-1H-indazol-7-yl]pyridazin-3-yl}-N-methyl-8-azabicyclo[3.2.1]octan-3-amine], in the data set with Target C (Homo sapiens, K562, 24 h), the IC50 is less than 100 nM. Moreover, in data set [1], the Papp at 2 h, 1 μM was 2 to 6 ×10⁻⁶ cm/s and the efflux ratio at 2 h, 1 μM was greater than 5.
Taken in the same sequence, the figures for `CN(c1ccc(-c2ccc(-c3cn[nH]c3)c3ncsc23)nn1)[C@@H]1C[C@H]2CC(F)(F)[C@@H](C1)N2` (stereo in doubt) [Compound 379, 6,6-difluoro-N-methyl-N-{6-[4-(1H-pyrazol-4-yl)-1,3-benzothiazol-7-yl]pyridazin-3-yl}-8-azabicyclo [3.2.1]octan-3-amine] were 100 to 1000 nM, 2 to 6 ×10⁻⁶ cm/s and 1.5 to 5.
In the data set on Target C (Homo sapiens, K562, 24 h), `CN(c1ccc(-c2ccc(-c3cn[nH]c3)c3cn[nH]c23)nn1)[C@@H]1C[C@H]2CC[C@@H](C1)N2` [Compound 104] had an IC50 of 100 to 1000 nM. In data set [1], the Papp at 2 h, 1 μM is less than 2 ×10⁻⁶ cm/s and the efflux ratio at 2 h, 1 μM was greater than 5.
Taken in the same sequence, the figures for `CN(c1ccc(-c2ccc(-n3cccn3)c3cn[nH]c23)nn1)[C@@H]1C[C@H]2CC[C@@H](C1)N2` [Compound 105] were less than 100 nM, less than 2 ×10⁻⁶ cm/s and greater than 5.
The matching figures for `CN(c1ccc(-c2ccc(-c3cn[nH]c3)c3ncsc23)nn1)C1CC(C)(C)NC(C)(C)C1` [Compound 132]: 100 to 1000 nM, less than 2 ×10⁻⁶ cm/s and greater than 5.
Taken in the same sequence, the figures for `CN(c1ccc(-c2ccc(-c3cn[nH]c3)c3cn[nH]c23)nn1)C1CC(C)(C)NC(C)(C)C1` [Compound 137] were 100 to 1000 nM, less than 2 ×10⁻⁶ cm/s and greater than 5.
Turning to `CN(c1ccc(-c2ccc(-c3ccc(=O)n(C)c3)c3scnc23)nn1)C1CC(C)(C)NC(C)(C)C1` [Compound 178], in the data set on Target C (Homo sapiens, K562, 24 h), the half-inhibitory concentration (IC50) was greater than 10000 nM. Besides, in data set [1], the Papp at 2 h, 1 μM is less than 2 ×10⁻⁶ cm/s and the efflux ratio at 2 h, 1 μM is greater than 5.
The molecule `CC1(C)CC(Oc2ccc(-c3ccc(-c4cn[nH]c4)c4ncsc34)nn2)CCN1` (stereo not shown) [Compound 182] came in with an IC50 in the data set with Target C (Homo sapiens, K562, 24 h) of 100 to 1000 nM. In data set [1], the Papp at 2 h, 1 μM is less than 2 ×10⁻⁶ cm/s and the efflux ratio at 2 h, 1 μM was greater than 5.
In the case of `c1nc2c(-c3cn[nH]c3)ccc(-c3ccc(OC4CCNCC4)nn3)c2s1` [Compound 183], the half-maximal inhibitory concentration (IC50) in the data set on Target C (Homo sapiens, K562, 24 h) was less than 100 nM. In data set [1], the Papp at 2 h, 1 μM is less than 2 ×10⁻⁶ cm/s and the efflux ratio at 2 h, 1 μM was greater than 5.
Regarding `c1nc2c(-c3cn[nH]c3)ccc(-c3ccc(O[C@@H]4C[C@H]5CC[C@@H](C4)N5)nn3)c2s1` [Compound 184], the IC50 in the data set with Target C (Homo sapiens, K562, 24 h) fell in the range of 100 to 1000 nM. In data set [1], the Papp at 2 h, 1 μM is less than 2 ×10⁻⁶ cm/s and the efflux ratio at 2 h, 1 μM is greater than 5.
The matching figures for `CC1(C)CC(Nc2ccc(-c3ccc(-c4cn[nH]c4)c4ncsc34)nn2)CC(C)(C)N1` [Compound 186]: less than 100 nM, less than 2 ×10⁻⁶ cm/s and greater than 5.
Molecule `c1nc2c(-c3cn[nH]c3)ccc(-c3ccc(N[C@@H]4C[C@H]5CC[C@@H](C4)N5)nn3)c2s1` [Compound 202] displayed an IC50 in the data set with Target C (Homo sapiens, K562, 24 h) of 100 to 1000 nM. For the same molecule, in data set [1], the Papp at 2 h, 1 μM was less than 2 ×10⁻⁶ cm/s and the efflux ratio at 2 h, 1 μM is greater than 5.
Taken in the same sequence, the figures for `CCN(c1ccc(C2=CC=C(c3cn[nH]c3)C3N=CSC23)nn1)[C@@H]1C[C@H]2CC[C@@H](C1)N2` (stereo partly shown) [Compound 203] were less than 100 nM, less than 2 ×10⁻⁶ cm/s and greater than 5.
`CN(c1ccc(-c2ccc(-c3cn[nH]c3)c3ncsc23)nn1)[C@H]1C[C@H]2COC[C@@H](C1)N2` [Compound 356, (endo)-N-methyl-N-{6-[4-(1H-pyrazol-4-yl)-1,3-benzothiazol-7-yl]pyridazin-3-yl}-3-oxa-9-azabicyclo[3.3.1]nonan-7-amine] had an IC50 in the data set on Target C (24 hours) of less than 100 nM.
